Measurements published in PubChem BioAssay AID1845217 (Molecular Pharmacology Branch, DTP, NCI, 2023).
Where “and” joins values, the source holds several entries; their conditions need not be identical. Equal entries are not always repeated.

Test system: VA-ES-BJ tumor spheroid viability
Assay: Anticancer human tumor VA-ES-BJ cell line growth inhibition;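 further: spheroids exposed to compounds for seven days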;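 on viability, T/C: percent of DMSO vehicle control viability so 100% = untreated growth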
Conditions: spheroids with HUVEC and MSC; for viability, T/C: stronger effect = lower value
Outline: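 Complex tumor spheroids combined malignant cells with endothelial cells and mesenchymal stem cells. DNA-damaging drugs and DNA repair inhibitors were tested alone and in combination, at half-log dilutions down from clinical Cmax (top 10 microM if Cmax unknown), 0.25% DMSO final.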

[1] = curve of first compound, second compound 0.003 µM
[2] = second compound 0.003 µM, first compound 0.0316 µM
[3] = second compound 0.003 µM, first compound 0.1 µM
[4] = second compound 0.003 µM, first compound 0.316 µM
[5] = second compound 0.003 µM, first compound 1 µM
[6] = second compound 0.003 µM, first compound 3.16 µM
[7] = second compound 0.003 µM, first compound 10 µM

CC1COCCN1c1cc(-c2ccnn2C)c2ccnc(-c3ccn[nH]3)c2n1 (configuration not stated) + COc1cc2c(cc1O)CCNC21CSC2c3c(OC(C)=O)c(C)c4c(c3C(COC1=O)N1C(O)C3Cc5cc(C)c(OC)c(O)c5C(C21)N3C)OCO4 was tested, and the IC50 (curve of first compound, second compound 30 pM) was less than 31.6 nM, the IC50 (curve of first compound, second compound 94.9 pM) was less than 31.6 nM and the IC50 (curve of first compound, second compound 0.0003 µM) was less than 31.6 nM. The IC50 (curve of first compound, second compound 0.000949 µM) was less than 31.6 nM, the IC50 [1] was less than 31.6 nM and the viability, T/C (second compound 30 pM, first compound 0.0316 µM) was 38%. For the same molecule, the viability, T/C (second compound 30 pM, first compound 0.1 µM) was 19.5%, the viability, T/C (second compound 30 pM, first compound 0.316 µM) was 8.68% and the viability, T/C (second compound 30 pM, first compound 1 µM) was 5.69%. The viability, T/C (second compound 30 pM, first compound 3.16 µM) was 4.98%, the viability, T/C (second compound 30 pM, first compound 10 µM) was 4.49% and the viability, T/C (second compound 94.9 pM, first compound 0.0316 µM) was 26%. It also gave a viability, T/C (second compound 94.9 pM, first compound 0.1 µM) of 21.3%, a viability, T/C (second compound 94.9 pM, first compound 0.316 µM) of 8.87% and a viability, T/C (second compound 94.9 pM, first compound 1 µM) of 4.99%. The viability, T/C (second compound 94.9 pM, first compound 3.16 µM) was 5.01%, the viability, T/C (second compound 94.9 pM, first compound 10 µM) was 4.7% and the viability, T/C (second compound 0.0003 µM, first compound 0.0316 µM) was 16.9%. It also gave a viability, T/C (second compound 0.0003 µM, first compound 0.1 µM) of 12%, a viability, T/C (second compound 0.0003 µM, first compound 0.316 µM) of 8.21% and a viability, T/C (second compound 0.0003 µM, first compound 1 µM) of 5.23%. For the same molecule, the viability, T/C (second compound 0.0003 µM, first compound 3.16 µM) was 5.32%, the viability, T/C (second compound 0.0003 µM, first compound 10 µM) was 5.04% and the viability, T/C (second compound 0.000949 µM, first compound 0.0316 µM) was 2.61%. The viability, T/C (second compound 0.000949 µM, first compound 0.1 µM) was 2.73%, the viability, T/C (second compound 0.000949 µM, first compound 0.316 µM) was 2.01% and the viability, T/C (second compound 0.000949 µM, first compound 1 µM) was 1.53%. For the same molecule, the viability, T/C (second compound 0.000949 µM, first compound 3.16 µM) was 0.5%, the viability, T/C (second compound 0.000949 µM, first compound 10 µM) was 0.13% and the viability, T/C [2] was 1.26%. It also gave a viability, T/C [3] of 1.04%, a viability, T/C [4] of 0.77% and a viability, T/C [5] of 1%. For the same molecule, the viability, T/C [6] was 0.35% and the viability, T/C [7] was 0.56%.

[2H]c1nc(C)nc([2H])c1-c1cc(NC[C@@H](C)c2cccc3c(C(=O)NC)ccnc23)ncn1 + CC[C@@]1(O)C(=O)OCc2c1cc1n(c2=O)Cc2cc3c(CN(C)C)c(O)ccc3nc2-1 was tested, and the IC50 [1] was greater than 10000 nM, the IC50 (curve of first compound, second compound 0.00949 µM) was greater than 10000 nM and the IC50 (curve of first compound, second compound 0.03 µM) was 203 nM. The IC50 (curve of first compound, second compound 0.0949 µM) was less than 31.6 nM, the IC50 (curve of first compound, second compound 0.3 µM) was less than 31.6 nM and the viability, T/C [2] was 101%. For the same molecule, the viability, T/C [3] was 95.9%, the viability, T/C [4] was 99.5% and the viability, T/C [5] was 100%. The viability, T/C [6] was 105%, the viability, T/C [7] was 100% and the viability, T/C (second compound 0.00949 µM, first compound 0.0316 µM) was 90.1%. For the same molecule, the viability, T/C (second compound 0.00949 µM, first compound 0.1 µM) was 90.6%, the viability, T/C (second compound 0.00949 µM, first compound 0.316 µM) was 90.6% and the viability, T/C (second compound 0.00949 µM, first compound 1 µM) was 92.4%. The viability, T/C (second compound 0.00949 µM, first compound 3.16 µM) was 87.3%, the viability, T/C (second compound 0.00949 µM, first compound 10 µM) was 81.6% and the viability, T/C (second compound 0.03 µM, first compound 0.0316 µM) was 53.3%. For the same molecule, the viability, T/C (second compound 0.03 µM, first compound 0.1 µM) was 48.2%, the viability, T/C (second compound 0.03 µM, first compound 0.316 µM) was 49.9% and the viability, T/C (second compound 0.03 µM, first compound 1 µM) was 50.2%. For the same molecule, the viability, T/C (second compound 0.03 µM, first compound 3.16 µM) was 46.4%, the viability, T/C (second compound 0.03 µM, first compound 10 µM) was 46% and the viability, T/C (second compound 0.0949 µM, first compound 0.0316 µM) was 9.76%. For the same molecule, the viability, T/C (second compound 0.0949 µM, first compound 0.1 µM) was 8.96%, the viability, T/C (second compound 0.0949 µM, first compound 0.316 µM) was 7.7% and the viability, T/C (second compound 0.0949 µM, first compound 1 µM) was 8.02%. The viability, T/C (second compound 0.0949 µM, first compound 3.16 µM) was 8.96%, the viability, T/C (second compound 0.0949 µM, first compound 10 µM) was 8.01% and the viability, T/C (second compound 0.3 µM, first compound 0.0316 µM) was 6.31%. The viability, T/C (second compound 0.3 µM, first compound 0.1 µM) was 6.82%, the viability, T/C (second compound 0.3 µM, first compound 0.316 µM) was 5.89% and the viability, T/C (second compound 0.3 µM, first compound 1 µM) was 5.88%. The viability, T/C (second compound 0.3 µM, first compound 3.16 µM) was 5.82% and the viability, T/C (second compound 0.3 µM, first compound 10 µM) was 5.63%.

With COc1ccc([C@@H](O)c2cc(-c3ncnc4cc(N5CCOCC5)ccc34)c(F)cc2Cl)nn1 the viability, T/C (compound 0.0316 µM) was 99.7% and 97.1% and 92.4%, the viability, T/C (compound 0.1 µM) was 113% and 95.6% and 88.6% and the viability, T/C (compound 0.316 µM) was 71.4% and 65.5% and 79.8%. The viability, T/C (compound 1 µM) was 45.9% and 32.2% and 52%, the viability, T/C (compound 3.16 µM) was 17.3% and 11.2% and 21.3% and the viability, T/C (compound 10 µM) was 10.2% and 6.84% and 8.9%. The IC50 (curve of compound) was 780 nM and 549 nM and 1080 nM.
